# Experimental data taken from patent US9475806B2, “Complement factor B inhibitors and uses there of” (Novartis AG, priority 2013, dated 2016).
# Target: T1, Recombinant human factor B (Homo sapiens (Human), UniProt P00751)
# Test: not given
# T1 sequence (P00751 26-764): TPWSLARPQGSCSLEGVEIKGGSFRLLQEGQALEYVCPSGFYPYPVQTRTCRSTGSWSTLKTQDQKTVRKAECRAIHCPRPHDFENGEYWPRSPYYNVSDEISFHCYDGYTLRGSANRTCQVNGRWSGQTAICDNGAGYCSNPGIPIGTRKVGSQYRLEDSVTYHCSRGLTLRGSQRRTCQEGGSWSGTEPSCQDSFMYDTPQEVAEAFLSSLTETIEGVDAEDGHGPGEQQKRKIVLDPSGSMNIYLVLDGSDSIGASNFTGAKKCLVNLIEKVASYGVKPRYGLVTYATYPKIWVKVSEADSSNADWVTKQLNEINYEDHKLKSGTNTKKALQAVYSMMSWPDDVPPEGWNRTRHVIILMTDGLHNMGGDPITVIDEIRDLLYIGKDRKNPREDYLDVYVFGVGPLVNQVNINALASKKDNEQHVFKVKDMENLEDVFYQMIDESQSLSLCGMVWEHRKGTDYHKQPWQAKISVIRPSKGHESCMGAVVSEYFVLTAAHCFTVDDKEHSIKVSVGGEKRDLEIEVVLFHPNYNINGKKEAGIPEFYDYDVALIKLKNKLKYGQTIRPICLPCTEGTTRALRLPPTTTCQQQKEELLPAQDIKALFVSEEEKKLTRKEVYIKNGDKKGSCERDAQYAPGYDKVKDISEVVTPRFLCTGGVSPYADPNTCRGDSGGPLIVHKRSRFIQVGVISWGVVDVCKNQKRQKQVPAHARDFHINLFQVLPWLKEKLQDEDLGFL
row,SMILES,IC50 [nM]
1,COc1cc(C)c2[nH]ccc2c1C(N)(c1nc2cc(C#N)cnc2[nH]1)C(F)(F)F (stereo not drawn) [5-B b) (+)],290
2,COc1cc(C)c2[nH]ccc2c1C(O)c1nc2ncc(C#N)cc2[nH]1 (stereo not drawn) [6-C b) (+)],700
3,COc1cc(C)c2[nH]ccc2c1C(C)(O)c1nc2cc(C#N)cnc2[nH]1 (stereo not drawn) [7-D b) (+)],50
4,COc1cc(C)c2[nH]ccc2c1C(C)(OC)c1nc2cc(C#N)cnc2[nH]1 (stereo not drawn) [8-B b) (+)],720
5,CNC(c1nc2cc(C#N)cnc2[nH]1)(c1c(OC)cc(C)c2[nH]ccc12)C(F)(F)F (stereo not drawn) [9-D b) (+)],1520
6,COc1cc(C)c2[nH]ccc2c1C(C)(N)c1nc2cc(C#N)cnc2[nH]1 (stereo not drawn) [10-B b) (+)],1380
7,CNC(C)(c1nc2cc(C#N)cnc2[nH]1)c1c(OC)cc(C)c2[nH]ccc12 (stereo not drawn) [11-B b) (+)],3140
8,CCc1cc(C)c2[nH]ccc2c1C(O)(c1nc2cc(C#N)cnc2[nH]1)C(F)(F)F (stereo not drawn) [14-I b) (+)],2350

# Target: T1, Recombinant human factor B
# Test: biochemical
row,SMILES,IC50 [nM]
1,"CCc1cc(C)c2[nH]ccc2c1C(C)(NC)c1nc2cc(C#N)cnc2[nH]1 (racemic) [Example 15-D, (±)-2-(1-(5-Ethyl-7-methyl-1H-indol-4-yl)-1-(methylamino)ethyl)-3H-imidazo[4,5-b]pyridine-6-carbonitrile]",540
2,"Cc1cc(C2CC2)c(C(O)c2nc3cc(C#N)cnc3[nH]2)c2cc[nH]c12 (racemic) [Example 16-G, (±)-2-((5-Cyclopropyl-7-methyl-1H-indol-4-yl)(hydroxy)methyl)-3H-imidazo[4,5-b]pyridine-6-carbonitrile]",460
3,"Cc1cc(C2CC2)c(C(C)(O)c2nc3cc(C#N)cnc3[nH]2)c2cc[nH]c12 (racemic) [Example 17-C, (±)-2-(1-(5-Cyclopropyl-7-methyl-1H-indol-4-yl)-1-hydroxyethyl)-3H-imidazo[4,5-b]pyridine-6-carbonitrile]",60
4,"Cc1cc(C2CC2)c(C(N)(c2nc3cc(C#N)cnc3[nH]2)C(F)(F)F)c2cc[nH]c12 (racemic) [Example 17-G, (±)-2-(1-Amino-1-(5-cyclopropyl-7-methyl-1H-indol-4-yl)-2,2,2-trifluoroethyl)-3H-imidazo[4,5-b]pyridine-6-carbonitrile]",90
5,"COc1cc(C)c2[nH]ccc2c1C(C)(C)c1nc2cc(C#N)cnc2[nH]1 [Example 12-D, 2-(2-(5-Methoxy-7-methyl-1H-indol-4-yl)propan-2-yl)-3H-imidazo[4,5-b]pyridine-6-carbonitrile]",40
